Experimental data as given in article PMC8658016, “Identification of New Compounds with Anticonvulsant and Antinociceptive Properties in a Group of 3-substituted (2,5-dioxo-pyrrolidin-1-yl)(phenyl)-Acetamides” (International Journal of Molecular Sciences, 2021).

Legend:
TRPV1 (VR1) (h) = target: T1, TRPV1 (VR1) (h) (Homo sapiens, UniProt Q8NER1); assay: TRPV1 (VR1) functional assay, antagonist effect; format: cell-based; settings: HEK293, human recombinant HEK-293 cells, read-out: % Inhibition of Control Agonist Response, TRPV1 (VR1) (h) (antagonist effect)
T1 construct: Cerep Laboratories / Eurofins Panlabs (contract assay)

mice [1] = assay: Capsaicin-induced neurogenic pain test; format: in vivo; settings: Mus musculus, ip; mice i.p.
Description: We used the capsaicin-induced pain model to test the impact of compound 14 on neurogenic pain. In this model, the activation of TRPV1 receptors on C-type primary afferents led to the release of inflammatory neuropeptides, contributing to the local and spinal sensitization and excitability.
(§1) The experiments were conducted on adult male Albino Swiss mice (CD-1, 18–25 g) and male Wistar rats (Krf:(WI) WU), 180–250 g) as described previously. The minimum number of animals used needed to obtain definite and normally distributed results with the utilized test. Behavioral measures were scored by trained observers, which were blind to experimental conditions. The following devices were used in the experiments: Analgesy Meter (37215, Ugo Basile), Plantar Test Apparatus (EFV5, Commat Ltd., Turkey), Plethysmometer (Plethysmometer 7140, Ugo Basile), Electronic von Frey unit (BIOSEB, France). […]
Data were presented as means ± standard error of the mean (S.E.M). […] Statistically significant differences between groups were calculated using one-way analysis of variance (ANOVA) and the post hoc Dunnett’s multiple comparison test or two-way analysis of variance (ANOVA) and the post hoc Tukey’s comparison when appropriate. […]

[2] = target: Cav1.2 (h) calcium ion channel (Homo sapiens, UniProt Q13936); assay: Cav1.2 calcium ion channel cell based antagonist calcium flux assay; settings: HEK293, read-out: % Inhibition of Control Agonist Response, Cav1.2 (h) calcium ion channel cell based antagonist calcium flux assay
mice [3] = assay: Subcutaneous pentylenetetrazole (scPTZ) seizure test; format: in vivo, mouse; settings: mice i.p.
CYP3A4 = target: T2, CYP3A4 (Homo sapiens, UniProt P08684); assay: CYP3A4 P450-Glo luminescent assay; format: in vitro ADME
T2 construct: purchased Promega (Madison, WI, USA)

mice [4] = assay: Maximal electroshock seizure (MES) test; format: in vivo, mouse; settings: mice i.p.
rats = assay: Carrageenan-induced mechanical hyperalgesia; format: in vivo, rat; settings: 80 mg/kg
Text: To test the anti-inflammatory activity and the potential to attenuate inflammatory pain, we tested compound 14 in the model of carrageenan-induced aseptic inflammation. In this model, the subplantar injection of carrageenan induced an edema, mechanical, and thermal hyperalgesia. […] In our opinion, the most surprising and interesting was the long-lasting anti-edematous effect. It may result from the pharmacokinetic properties of compound 14, but also from its unique mechanism. Since inflammation is one of the critical components of neuropathy, the anti-inflammatory activity of compound 14 may be a valuable and distinctive property from classical ASDs used to treat neuropathic pain [33]. […] The pain threshold reached 87.3%, 90.9%, and 89.7% of its initial value 3, 6, and 24 h after carrageenan injection, respectively. […] The initial latency for compound 14-treated animals was 8.95 ± 0.4 s. The administration of compound 14 changed the values to 127.0%, 102.0%, 79.8%, 83.8%, and 164.4% of the initial value 1, 2, 3, 6-, and 24-h following carrageenan injection, respectively.
as §1
Figure 8 Effect of compound 14 on carrageenan-induced oedema (A), mechanical hyperalgesia (B), and thermal hyperalgesia (C), developed after subplantar injection of 1% carrageenan in rats. Data are expressed as means ± S.E.M. for 6 animals; 0—the initial value considered as the paw volume (A) or nociceptive reaction (B,C) before carrageenan administration. […]

[5] = Mus musculus, ip, 95% confidence interval in parentheses

T1 sequence (Q8NER1 whole entry): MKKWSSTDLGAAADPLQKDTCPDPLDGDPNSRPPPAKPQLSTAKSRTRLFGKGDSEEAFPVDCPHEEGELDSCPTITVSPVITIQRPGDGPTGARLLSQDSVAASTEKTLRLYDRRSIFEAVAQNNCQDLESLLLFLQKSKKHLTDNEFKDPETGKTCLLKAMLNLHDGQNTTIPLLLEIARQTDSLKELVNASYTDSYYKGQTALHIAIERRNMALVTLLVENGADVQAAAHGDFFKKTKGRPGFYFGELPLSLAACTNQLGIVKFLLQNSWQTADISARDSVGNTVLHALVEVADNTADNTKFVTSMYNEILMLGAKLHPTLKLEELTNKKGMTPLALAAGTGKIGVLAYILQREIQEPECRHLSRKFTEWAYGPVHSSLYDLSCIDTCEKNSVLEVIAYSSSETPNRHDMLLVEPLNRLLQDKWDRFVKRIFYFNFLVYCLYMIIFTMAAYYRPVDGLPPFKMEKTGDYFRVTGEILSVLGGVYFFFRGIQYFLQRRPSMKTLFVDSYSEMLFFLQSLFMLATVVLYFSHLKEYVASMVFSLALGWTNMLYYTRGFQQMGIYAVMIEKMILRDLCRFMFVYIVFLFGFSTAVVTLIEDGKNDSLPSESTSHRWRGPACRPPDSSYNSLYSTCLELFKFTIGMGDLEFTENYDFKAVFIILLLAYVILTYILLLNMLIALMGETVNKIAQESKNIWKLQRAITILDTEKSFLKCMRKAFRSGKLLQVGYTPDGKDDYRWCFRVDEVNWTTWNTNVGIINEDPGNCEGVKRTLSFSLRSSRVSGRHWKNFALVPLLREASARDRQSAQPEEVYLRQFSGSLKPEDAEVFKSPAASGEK
T2 sequence (P08684 whole entry): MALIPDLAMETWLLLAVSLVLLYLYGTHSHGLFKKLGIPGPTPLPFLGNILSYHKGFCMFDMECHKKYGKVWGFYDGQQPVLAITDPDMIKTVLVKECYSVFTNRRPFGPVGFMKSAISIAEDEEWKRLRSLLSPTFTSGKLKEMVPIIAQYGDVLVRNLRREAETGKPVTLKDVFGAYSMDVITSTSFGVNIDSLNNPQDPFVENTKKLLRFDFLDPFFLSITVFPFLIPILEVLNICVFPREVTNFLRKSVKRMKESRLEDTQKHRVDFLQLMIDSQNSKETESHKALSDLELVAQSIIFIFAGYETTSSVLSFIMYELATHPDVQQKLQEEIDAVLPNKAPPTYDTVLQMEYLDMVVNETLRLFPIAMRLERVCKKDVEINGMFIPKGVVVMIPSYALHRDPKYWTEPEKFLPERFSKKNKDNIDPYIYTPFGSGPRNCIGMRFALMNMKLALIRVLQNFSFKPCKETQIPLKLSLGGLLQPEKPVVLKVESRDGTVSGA

## CN(C)C1CC(=O)N(C(C(=O)N2CCN(c3cccc(C(F)(F)F)c3)CC2)c2ccccc2)C1=O.Cl (centres unmarked) [Compound 14, 3-(Dimethylamino)-1-(2-oxo-1-phenyl-2-(4-(3-(trifluoromethyl)phenyl)-piperazin-1-yl)ethyl)pyrrolidine-2,5-dione hydrochloride]
TRPV1 (VR1) (h); 10 µM
  inhibition at 10 µM: 17.3%
TRPV1 (VR1) (h); 50 µM
  inhibition at 50 µM: 88.8%
Mice [1]
  ED50: 54.1 mg/kg
[2]
  inhibition at 10 µM: 29%
Mice [3]; [5]
  ED50: 67.4 mg/kg
Mice [3]; 100 mg/kg, 0.5 h
  scPTZ screening: number of mice protected / number of mice tested: 2/4
CYP3A4; 10 µM
  CYP3A4 activity in the presence of the compound: higher than 50%
CYP3A4; significant inhibition only at 10 µM and 25 µM (p < 0.0001)
  CYP3A4 inhibition, classification: moderate inhibitor
Mice [4]; [5]
  ED50: 49.6 mg/kg
Mice [4]; 100 mg/kg, 0.5 h
  MES screening: number of mice protected / number of mice tested: 4/4
  protection in the MES test: 100%
rats; 3 h after carrageenan
  withdrawal threshold, % of the initial reaction (mechanical hyperalgesia): 113.3%
rats; 6 h after carrageenan
  withdrawal threshold, % of the initial reaction (mechanical hyperalgesia): 110.1%
rats; 24 h after carrageenan
  withdrawal threshold, % of the initial reaction (mechanical hyperalgesia): 111.4%
